For assay [1], the system named is HCV genotype 1b (Con1) replicon in HUH-7 cells. In words: HCV replicon luciferase reporter assay, genotype 1b. The format is cell-based. The conditions noted are these: Hepatitis C virus, Huh-7, 72 h, HCV genotype 1b replicon luciferase, 3 days incubation. Put shortly: (§1)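 Replicon inhibition for both genotypes was measured as Renilla luciferase signal (EnduRen, 7.5 μM final, 2 h) after 3-day, 37° C exposure of replicon-bearing HUH-7 cells in 4% FCS DMEM, 0.5% DMSO. The 1b construct carries S1179I; the 1a H77 construct carries P1496L and S2204I. Twenty-point, 3-fold dilutions were fitted four-parametrically for EC50, and CC50 was taken from multiplexed Cell Titer-Blue.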
Background: Replicon systems follow genome replication, usually without infectious particles.

Assay [2] concerns HCV genotype 1a (H77 strain) replicon in HUH-7 cells. In words: HCV replicon luciferase reporter assay, genotype 1a. The format is cell-based. The conditions noted are these: Hepatitis C virus, Huh-7, 72 h, HCV genotype 1a replicon luciferase, 3 days incubation. Put shortly: as §1

This is an account of results in patent US9499550B2 (BRISTOL-MYERS SQUIBB COMPANY, priority 2012, dated 2016).

Molecules are shown by their SMILES. Like-named read-outs stand apart in the source and are kept apart here.

As a reminder, the EC50 is the concentration that produces a half-maximal response. `COc1cc2cc(-c3ccc(OC(C)C)cc3)nc(O[C@@H]3C[C@H]4C(=O)N[C@]5(C(=O)NS(=O)(=O)C6(C)CC6)C[C@H]5/C=C\CC[C@H](C)C[C@@H](C)[C@H](NC(=O)OC(C)(C)C(F)(F)F)C(=O)N4C3)c2cc1F` [Compound 3185, 1,1,1-trifluoro-2-methylpropan-2-yl((2R,6S,7R,9S,13aS,14aR,16aS,Z)-2-((7-fluoro-3-(4-isopropoxyphenyl)-6-methoxyisoquinolin-1-yl)oxy)-7,9-dimethyl-14a-(((1-methylcyclopropyl)sulfonyl)carbamoyl)-5,16-dioxo-1,2,3,5,6,7,8,9,10,11,13a,14,14a,15,16,16a-hexadecahydrocyclopropa[e]pyrrolo[1,2-a][1,4]diazacyclopentadecin-6-yl)carbamate]: the EC50 is 4.82 to 103 nM in assay [1] (read-out: LE_1b (EC50, range)) and 4.82 to 103 nM in assay [2] (read-out: LE_1a (EC50, range)).

On to `COc1cc2cc(-c3ccc(OC(C)C)cc3)nc(O[C@@H]3C[C@H]4C(=O)N[C@]5(C(=O)NS(=O)(=O)C6(C)CC6)C[C@H]5/C=C\CC[C@@H](C)C[C@@H](C)[C@H](NC(=O)OC(C)(C)C(F)(F)F)C(=O)N4C3)c2cc1F` [Compound 3186, 1,1,1-trifluoro-2-methylpropan-2-yl((2R,6S,7R,9R,13aS,14aR,16aS,Z)-2-((7-fluoro-3-(4-isopropoxyphenyl)-6-methoxyisoquinolin-1-yl)oxy)-7,9-dimethyl-14a-(((1-methylcyclopropyl)sulfonyl)carbamoyl)-5,16-dioxo-1,2,3,5,6,7,8,9,10,11,13a,14,14a,15,16,16a-hexadecahydrocyclopropa[e]pyrrolo[1,2-a][1,4]diazacyclopentadecin-6-yl)carbamate], for which the EC50 is below 5.46 nM in assay [1] (read-out: LE_1b (EC50, range)) and below 5.46 nM in assay [2] (read-out: LE_1a (EC50, range)).

As for `COc1cc2cc(-c3ccc(OC(C)C)cc3)nc(O[C@@H]3C[C@H]4C(=O)N[C@]5(C(=O)NS(=O)(=O)C6CC6)C[C@H]5/C=C\CC[C@H](C)C[C@@H](C)[C@H](NC(=O)O[C@@H]5C[C@@H]6C[C@@H]6C5)C(=O)N4C3)c2cc1F` [Compound 3187, (1R,3r,5S)-bicyclo[3.1.0]hexan-3-yl((2R,6S,7R,9S,13aS,14aR,16aS,Z)-14a-((cyclopropylsulfonyl)carbamoyl)-2-((7-fluoro-3-(4-isopropoxyphenyl)-6-methoxyisoquinolin-1-yl)oxy)-7,9-dimethyl-5,16-dioxo-1,2,3,5,6,7,8,9,10,11,13a,14,14a,15,16,16a-hexadecahydrocyclopropa[e]pyrrolo[1,2-a][1,4]diazacyclopentadecin-6-yl)carbamate], the EC50 in assay [1] (read-out: LE_1b (EC50, range)) is below 5.46 nM; in assay [2] (read-out: LE_1a (EC50, range)) it was below 5.46 nM.

As for `COc1cc2cc(-c3ccc(OC(C)C)cc3)nc(O[C@@H]3C[C@H]4C(=O)N[C@]5(C(=O)NS(=O)(=O)C6CC6)C[C@H]5/C=C\CC[C@@H](C)C[C@@H](C)[C@H](NC(=O)O[C@@H]5C[C@@H]6C[C@@H]6C5)C(=O)N4C3)c2cc1F` [Compound 3188, (1R,3r,5S)-bicyclo[3.1.0]hexan-3-yl((2R,6S,7R,9R,13aS,14aR,16aS,Z)-14a-((cyclopropylsulfonyl)carbamoyl)-2-((7-fluoro-3-(4-isopropoxyphenyl)-6-methoxyisoquinolin-1-yl)oxy)-7,9-dimethyl-5,16-dioxo-1,2,3,5,6,7,8,9,10,11,13a,14,14a,15,16,16a-hexadecahydrocyclopropa[e]pyrrolo[1,2-a][1,4]diazacyclopentadecin-6-yl)carbamate], the EC50 was below 5.46 nM in assay [1] (read-out: LE_1b (EC50, range)) and below 5.46 nM in assay [2] (read-out: LE_1a (EC50, range)).

In the case of `COc1cc2cc(-c3ccc(OC(C)C)cc3)nc(O[C@@H]3C[C@H]4C(=O)N[C@]5(C(=O)NS(=O)(=O)C6CC6)C[C@H]5/C=C\CC[C@H](C)C[C@@H](C)[C@H](NC(=O)OC(C)(C)C(F)(F)F)C(=O)N4C3)c2cc1F` [Compound 3189, 1,1,1-trifluoro-2-methylpropan-2-yl((2R,6S,7R,9S,13aS,14aR,16aS,Z)-14a-((cyclopropylsulfonyl)carbamoyl)-2-((7-fluoro-3-(4-isopropoxyphenyl)-6-methoxyisoquinolin-1-yl)oxy)-7,9-dimethyl-5,16-dioxo-1,2,3,5,6,7,8,9,10,11,13a,14,14a,15,16,16a-hexadecahydrocyclopropa[e]pyrrolo[1,2-a][1,4]diazacyclopentadecin-6-yl)carbamate], the EC50 was below 5.46 nM in assay [1] (read-out: LE_1b (EC50, range)) and 4.82 to 103 nM in assay [2] (read-out: LE_1a (EC50, range)).

Turning to `COc1cc2cc(-c3ccc(OC(C)C)cc3)nc(O[C@@H]3C[C@H]4C(=O)N[C@]5(C(=O)NS(=O)(=O)C6CC6)C[C@H]5/C=C\CC[C@@H](C)C[C@@H](C)[C@H](NC(=O)OC(C)(C)C(F)(F)F)C(=O)N4C3)c2cc1F` [Compound 3190, 1,1,1-trifluoro-2-methylpropan-2-yl((2R,6S,7R,9R,13aS,14aR,16aS,Z)-14a-((cyclopropylsulfonyl)carbamoyl)-2-((7-fluoro-3-(4-isopropoxyphenyl)-6-methoxyisoquinolin-1-yl)oxy)-7,9-dimethyl-5,16-dioxo-1,2,3,5,6,7,8,9,10,11,13a,14,14a,15,16,16a-hexadecahydrocyclopropa[e]pyrrolo[1,2-a][1,4]diazacyclopentadecin-6-yl)carbamate], the EC50 was below 5.46 nM in assay [1] (read-out: LE_1b (EC50, range)) and below 5.46 nM in assay [2] (read-out: LE_1a (EC50, range)).

As for `COc1cc2cc(-c3ccc(OC(C)C)cc3)nc(O[C@@H]3C[C@H]4C(=O)N[C@]5(C(=O)NS(=O)(=O)C6(C)CC6)C[C@H]5/C=C\CC[C@H](C)C[C@@H](C)[C@H](NC(=O)O[C@@H]5C[C@@H]6C[C@@H]6C5)C(=O)N4C3)c2cc1F` [Compound 3191, (1R,3r,5S)-bicyclo[3.1.0]hexan-3-yl((2R,6S,7R,9S,13aS,14aR,16aS,Z)-2-((7-fluoro-3-(4-isopropoxyphenyl)-6-methoxyisoquinolin-1-yl)oxy)-7,9-dimethyl-14a-(((1-methylcyclopropyl)sulfonyl)carbamoyl)-5,16-dioxo-1,2,3,5,6,7,8,9,10,11,13a,14,14a,15,16,16a-hexadecahydrocyclopropa[e]pyrrolo[1,2-a][1,4]diazacyclopentadecin-6-yl)carbamate], the EC50 in assay [1] (read-out: LE_1b (EC50, range)) is below 5.46 nM; in assay [2] (read-out: LE_1a (EC50, range)), 4.82 to 103 nM.

Consider `COc1cc2cc(-c3ccc(OC(C)C)cc3)nc(O[C@@H]3C[C@H]4C(=O)N[C@]5(C(=O)NS(=O)(=O)C6(C)CC6)C[C@H]5/C=C\CC[C@@H](C)C[C@@H](C)[C@H](NC(=O)O[C@@H]5C[C@@H]6C[C@@H]6C5)C(=O)N4C3)c2cc1F` [Compound 3192, (1R,3r,5S)-bicyclo[3.1.0]hexan-3-yl((2R,6S,7R,9R,13aS,14aR,16aS,Z)-2-((7-fluoro-3-(4-isopropoxyphenyl)-6-methoxyisoquinolin-1-yl)oxy)-7,9-dimethyl-14a-(((1-methylcyclopropyl)sulfonyl)carbamoyl)-5,16-dioxo-1,2,3,5,6,7,8,9,10,11,13a,14,14a,15,16,16a-hexadecahydrocyclopropa[e]pyrrolo[1,2-a][1,4]diazacyclopentadecin-6-yl)carbamate], for which the EC50 is below 5.46 nM in assay [1] (read-out: LE_1b (EC50, range)) and below 5.46 nM in assay [2] (read-out: LE_1a (EC50, range)).

With `CCOc1cc2cc(OC)ccc2c(O[C@@H]2C[C@H]3C(=O)N[C@]4(C(=O)NS(=O)(=O)C5(C)CC5)C[C@H]4/C=C\CC[C@H](C)C[C@@H](C)[C@H](NC(=O)OC(C)(C)C)C(=O)N3C2)n1` [Compound 3193, tert-butyl ((2R,6S,7R,9S,13aS,14aR,16aS,Z)-2-((3-ethoxy-6-methoxyisoquinolin-1-yl)oxy)-7,9-dimethyl-14a-(((1-methylcyclopropyl)sulfonyl)carbamoyl)-5,16-dioxo-1,2,3,5,6,7,8,9,10,11,13a,14,14a,15,16,16a-hexadecahydrocyclopropa[e]pyrrolo[1,2-a][1,4]diazacyclopentadecin-6-yl)carbamate], the EC50 in assay [1] (read-out: LE_1b (EC50, range)) fell in the range of 0.51 to 1 nM; in assay [2] (read-out: LE_1a (EC50, range)) it was 1.01 to 5 nM.

For `CCOc1cc2cc(OC)ccc2c(O[C@@H]2C[C@H]3C(=O)N[C@]4(C(=O)NS(=O)(=O)C5(C)CC5)C[C@H]4/C=C\CC[C@@H](C)C[C@@H](C)[C@H](NC(=O)OC(C)(C)C)C(=O)N3C2)n1` [Compound 3194, tert-butyl ((2R,6S,7R,9R,13aS,14aR,16aS,Z)-2-((3-ethoxy-6-methoxyisoquinolin-1-yl)oxy)-7,9-dimethyl-14a-(((1-methylcyclopropyl)sulfonyl)carbamoyl)-5,16-dioxo-1,2,3,5,6,7,8,9,10,11,13a,14,14a,15,16,16a-hexadecahydrocyclopropa[e]pyrrolo[1,2-a][1,4]diazacyclopentadecin-6-yl)carbamate], the EC50 is 0.44 nM in assay [1] (read-out: LE_1b (EC50)); 0.1 to 0.5 nM in assay [1] (read-out: LE_1b (EC50, range)); 0.62 nM in assay [2] (read-out: LE_1a (EC50)); 0.51 to 1 nM in assay [2] (read-out: LE_1a (EC50, range)).

Turning to `COc1ccc2c(O[C@@H]3C[C@H]4C(=O)N[C@]5(C(=O)NS(=O)(=O)C6(C)CC6)C[C@H]5/C=C\CC[C@H](C)C[C@@H](C)[C@H](NC(=O)OC(C)(C)C)C(=O)N4C3)nc(OC(C)C)cc2c1` [Compound 3195, tert-butyl ((2R,6S,7R,9S,13aS,14aR,16aS,Z)-2-((3-isopropoxy-6-methoxyisoquinolin-1-yl)oxy)-7,9-dimethyl-14a-(((1-methylcyclopropyl)sulfonyl)carbamoyl)-5,16-dioxo-1,2,3,5,6,7,8,9,10,11,13a,14,14a,15,16,16a-hexadecahydrocyclopropa[e]pyrrolo[1,2-a][1,4]diazacyclopentadecin-6-yl)carbamate], the EC50 in assay [1] (read-out: LE_1b (EC50, range)) fell in the range of 0.51 to 1 nM; in assay [2] (read-out: LE_1a (EC50, range)) it was 1.01 to 5 nM.
